Results reported in ChEMBL document CHEMBL2216752, “Carnitine palmitoyltransferase (CPT) modulators: a medicinal chemistry perspective on 35 years of research” (J Med Chem, 2011).
Values belong to the compound of their own block, whether it stands above or below them.

What was measured:
Mus musculus [1] = assay: Reduction in serum glucose level db/db mouse at 100 mg/kg/day for 30 days; format: functional; parameters: scale not given: the % may be the effect or the level left
[2] = Competitive inhibition of carnitine palmitoyltransferase using palmitoyl-CoA
[3] = Inhibition of carnitine palmitoyltransferase in rat liver mitochondria assessed as conversion of [14C]palmitic acid to [14C]palmitoylcarnitine by radiometric assay
[4] = Inhibition of carnitine palmitoyltransferase in rat heart mitochondria assessed as conversion of [14C]palmitic acid to [14C]palmitoylcarnitine by radiometric assay
Rattus norvegicus [5] = assay: Reduction in KB level po dosed 24 hrs fasted rat measured 6 hrs post dose; format: functional
[6] = target: T1, Carnitine O-palmitoyltransferase 2, mitochondrial (Homo sapiens, UniProt P23786); assay: Competitive inhibition of CPT2
T1 sequence (P23786 whole entry): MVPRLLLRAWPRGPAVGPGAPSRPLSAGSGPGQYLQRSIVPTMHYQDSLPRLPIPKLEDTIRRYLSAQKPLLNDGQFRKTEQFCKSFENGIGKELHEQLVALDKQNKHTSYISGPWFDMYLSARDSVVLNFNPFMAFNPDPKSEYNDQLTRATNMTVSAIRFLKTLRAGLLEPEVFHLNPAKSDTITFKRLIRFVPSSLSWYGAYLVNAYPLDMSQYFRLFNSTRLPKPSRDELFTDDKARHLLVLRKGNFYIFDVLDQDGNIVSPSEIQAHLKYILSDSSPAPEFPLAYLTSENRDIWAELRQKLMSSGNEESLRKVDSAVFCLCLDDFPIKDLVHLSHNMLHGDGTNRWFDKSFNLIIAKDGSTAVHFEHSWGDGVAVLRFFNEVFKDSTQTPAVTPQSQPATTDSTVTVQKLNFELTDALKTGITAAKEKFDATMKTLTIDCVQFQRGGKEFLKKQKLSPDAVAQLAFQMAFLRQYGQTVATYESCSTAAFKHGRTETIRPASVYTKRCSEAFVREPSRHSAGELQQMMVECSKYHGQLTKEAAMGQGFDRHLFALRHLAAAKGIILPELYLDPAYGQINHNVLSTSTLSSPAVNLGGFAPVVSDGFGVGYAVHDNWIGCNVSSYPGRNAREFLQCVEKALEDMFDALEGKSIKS

[7] = target: T1, Carnitine O-palmitoyltransferase 2, mitochondrial; assay: Competitive inhibition of CPT2 in liver mitochondria using carnitine
[8] = target: T1, Carnitine O-palmitoyltransferase 2, mitochondrial; assay: Competitive inhibition of CPT2 in heart mitochondria using carnitine
Rattus norvegicus [9] = species: Rattus norvegicus; assay: Reduction in ketone bodies in 48 hrs fasted rat; format: functional; parameters: scale not given: the % may be the effect or the level left
Rattus norvegicus [10] = species: Rattus norvegicus; assay: Inhibition of CPT1A activity in 48 hrs fasted rat; format: functional
[11] = target: T2, Carnitine O-palmitoyltransferase 1, liver isoform (Homo sapiens, UniProt P50416); assay: Inhibition of human CPT1A
T2 sequence (P50416 whole entry): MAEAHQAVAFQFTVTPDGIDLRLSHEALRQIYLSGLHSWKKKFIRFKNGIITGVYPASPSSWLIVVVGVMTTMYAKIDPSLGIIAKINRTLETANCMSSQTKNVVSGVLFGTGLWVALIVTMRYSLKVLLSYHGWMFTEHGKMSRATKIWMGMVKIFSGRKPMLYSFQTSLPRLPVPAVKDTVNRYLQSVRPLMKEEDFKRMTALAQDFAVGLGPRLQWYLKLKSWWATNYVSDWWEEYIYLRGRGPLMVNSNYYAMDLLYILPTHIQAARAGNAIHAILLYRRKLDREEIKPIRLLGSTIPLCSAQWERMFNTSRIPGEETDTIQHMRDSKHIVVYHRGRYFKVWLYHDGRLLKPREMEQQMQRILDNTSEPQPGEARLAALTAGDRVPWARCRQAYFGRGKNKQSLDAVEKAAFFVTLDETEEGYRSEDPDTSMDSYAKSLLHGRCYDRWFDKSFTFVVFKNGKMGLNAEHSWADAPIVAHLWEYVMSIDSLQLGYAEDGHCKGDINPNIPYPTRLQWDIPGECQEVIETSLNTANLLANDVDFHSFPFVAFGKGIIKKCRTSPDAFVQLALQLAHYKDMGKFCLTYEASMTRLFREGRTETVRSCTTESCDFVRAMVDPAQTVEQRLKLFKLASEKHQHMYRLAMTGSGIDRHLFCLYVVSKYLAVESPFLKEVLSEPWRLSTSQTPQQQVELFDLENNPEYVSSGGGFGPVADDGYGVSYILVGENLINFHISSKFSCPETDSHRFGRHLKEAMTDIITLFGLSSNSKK

[12] = Critical micelle concentration of compound; format: physicochemical
Mus musculus [13] = assay: Reduction in food intake in C57BL/6J mouse at 250 pmol/day, icv for 4 days; format: functional; parameters: scale not given: the % may be the effect or the level left
[14] = Inhibition of human FAO
Mus musculus [15] = assay: Reduction in body weight in C57BL/6J mouse at 250 pmol/day, icv for 4 days; format: functional; parameters: scale not given: the % may be the effect or the level left
[16] = target: T3, Carnitine O-palmitoyltransferase 1, muscle isoform (Homo sapiens, UniProt Q92523); assay: Inhibition of human CPT1B
T3 sequence (Q92523 whole entry): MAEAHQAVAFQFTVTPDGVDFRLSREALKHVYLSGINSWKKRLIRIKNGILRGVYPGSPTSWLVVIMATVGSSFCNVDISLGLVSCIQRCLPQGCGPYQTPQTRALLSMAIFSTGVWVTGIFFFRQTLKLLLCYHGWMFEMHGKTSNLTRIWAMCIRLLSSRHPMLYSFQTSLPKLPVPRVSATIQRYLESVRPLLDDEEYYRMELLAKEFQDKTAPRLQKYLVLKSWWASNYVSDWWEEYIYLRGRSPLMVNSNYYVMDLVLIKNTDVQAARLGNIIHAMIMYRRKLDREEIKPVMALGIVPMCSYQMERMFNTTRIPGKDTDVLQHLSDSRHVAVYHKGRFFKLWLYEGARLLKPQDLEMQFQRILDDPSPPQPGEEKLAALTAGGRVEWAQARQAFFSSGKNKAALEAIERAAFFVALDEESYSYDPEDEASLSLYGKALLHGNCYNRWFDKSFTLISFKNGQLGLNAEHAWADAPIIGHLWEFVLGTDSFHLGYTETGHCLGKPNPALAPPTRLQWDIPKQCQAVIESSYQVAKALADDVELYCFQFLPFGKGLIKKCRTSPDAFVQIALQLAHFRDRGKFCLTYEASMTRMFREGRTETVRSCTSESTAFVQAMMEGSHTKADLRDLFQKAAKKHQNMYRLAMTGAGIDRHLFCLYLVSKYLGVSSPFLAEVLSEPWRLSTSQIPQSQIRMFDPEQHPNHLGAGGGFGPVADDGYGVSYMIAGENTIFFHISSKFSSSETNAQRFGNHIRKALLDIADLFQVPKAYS

Rattus norvegicus [17] = assay: Inhibition of ketogenesis in 17 hrs fasted po dosed rat; format: functional
[18] = target: T1, Carnitine O-palmitoyltransferase 2, mitochondrial; assay: Inhibition of human CPT2
[19] = Inhibition of rat FAO
Mus musculus [20] = assay: Reduction in glucose level in db/db mouse at 30 mg/kgl/day, po for 12 days; format: functional; parameters: scale not given: the % may be the effect or the level left; conditions: dose 30 mg/kg
[21] = Inhibition of carnitine palmitoyltransferase in fasted rat detergent lysed liver mitochondria by DTNB based spectrophotometric assay
Mus musculus [22] = assay: Inhibition of [14C]palmitate oxidation to CO2 in mouse at 0.1 mmol/kg, ip; format: functional
Mus musculus [23] = assay: Reduction in blood glucose level STZ-treated mouse at 1 mmol/kg, po measured 6 to 12 hrs post dose; format: functional; parameters: scale not given: the % may be the effect or the level left
Mus musculus [24] = assay: Reduction in liver glycogen level in db/db mouse at 50 mg/kg, po bid for 45 days; format: functional; parameters: scale not given: the % may be the effect or the level left
Mus musculus [25] = assay: Increase in circulating FFA level in db/db mouse at 50 mg/kg, po bid for 45 days; format: functional
[26] = Half life in NIDD patient at 150 to 450 mg/day, po for 15 days; format: ADME, organism-based; conditions: human, in vivo
Cynomolgus monkey = assay: Inhibition of ketogenesis in fasted po dosed cynomolgus monkey; format: functional; conditions: Macaca fascicularis
Homo sapiens [27] = assay: Reduction in fasting insulin in NIDD patient at 450 mg/day, po for 15 days; format: functional; parameters: scale not given: the % may be the effect or the level left
Homo sapiens [28] = assay: Reduction in HOMA index in NIDD patient at 450 mg/day, po for 15 days; format: functional; parameters: scale not given: the % may be the effect or the level left
Rattus norvegicus [29] = assay: Reduction in glucose production in Sprague-Dawley rat at 5 to 25 pmol, icv administered as one or two single doses; format: functional; parameters: scale not given: the % may be the effect or the level left
Mus musculus [30] = assay: Increase in liver TG level in db/db mouse at 50 mg/kg, po bid for 45 days; format: functional
[31] = target: T4, Carnitine O-palmitoyltransferase 2, mitochondrial (Rattus norvegicus, UniProt P18886); assay: Inhibition of rat CPT2
T4 sequence (P18886 whole entry): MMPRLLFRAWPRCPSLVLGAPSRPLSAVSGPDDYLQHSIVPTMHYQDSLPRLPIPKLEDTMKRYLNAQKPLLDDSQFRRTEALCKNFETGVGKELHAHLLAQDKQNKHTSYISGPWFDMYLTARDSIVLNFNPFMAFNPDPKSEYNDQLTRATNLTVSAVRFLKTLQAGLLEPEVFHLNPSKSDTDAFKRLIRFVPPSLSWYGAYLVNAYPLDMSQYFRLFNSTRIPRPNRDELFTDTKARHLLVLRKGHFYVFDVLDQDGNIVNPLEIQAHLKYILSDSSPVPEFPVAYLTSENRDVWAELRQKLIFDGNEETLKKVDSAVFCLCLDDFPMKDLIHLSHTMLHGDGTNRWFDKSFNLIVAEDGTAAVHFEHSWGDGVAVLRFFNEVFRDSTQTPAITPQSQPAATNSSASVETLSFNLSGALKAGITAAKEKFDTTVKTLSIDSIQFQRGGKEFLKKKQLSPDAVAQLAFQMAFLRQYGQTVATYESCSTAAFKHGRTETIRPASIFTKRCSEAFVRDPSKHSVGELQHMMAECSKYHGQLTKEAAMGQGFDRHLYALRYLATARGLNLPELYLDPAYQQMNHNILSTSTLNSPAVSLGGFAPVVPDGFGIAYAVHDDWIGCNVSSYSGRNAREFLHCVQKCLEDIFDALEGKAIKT

Mus musculus [32] = assay: Reduction in serum fructosamine level in db/db mouse at 50 mg/kg, po bid for 45 days; format: functional; parameters: scale not given: the % may be the effect or the level left
Mus musculus [33] = assay: Reduction in serum glucose in db/db mouse at 50 mg/kg, po bid for 45 days; format: functional; parameters: scale not given: the % may be the effect or the level left
Mus musculus [34] = assay: Reduction in glucose level in db/db mouse at 80 mg/kgl/day, po for 12 days; format: functional; parameters: scale not given: the % may be the effect or the level left; conditions: dose 80 mg/kg
Mus musculus [35] = assay: Reduction in blood glucose level in db/db mouse at 50 mg/kg, po bid for 45 days; format: functional; parameters: scale not given: the % may be the effect or the level left
Mus musculus [36] = assay: Reduction in water consumption in db/db mouse at 50 mg/kg, po bid for 45 days; format: functional; parameters: scale not given: the % may be the effect or the level left

- Ki [2]: 250 nM
- IC50 [3]: 700 nM
- IC50 [4]: 3400 nM
Structure (SMILES): CCCCCCCCCCCCS(=O)(=O)N[C@H](CC(=O)[O-])C[N+](C)(C)C
- Activity (Mus musculus [1]): 28%
- ED50 (Rattus norvegicus [5]): 20 mg/kg

- Ki [6]: 160 nM
- Ki [7]: 4200 nM
- Ki [8]: 2800 nM
Structure (SMILES): CCCCCCCCCCCCCCC[C@@]1(O)C[N+](C)(C)C[C@@H](CC(=O)[O-])O1 (racemic)

Structure (SMILES): CCCCCCCCCCCCCC[C@]1(C(=O)OC)CO1 (racemic)
- Activity (Rattus norvegicus [9]): 90%
- inhibition (INH) (Rattus norvegicus [10]): 90%

- IC50 [11]: 1700 nM
- CMC [12]: 0.79 mM
- IC50 [14]: 730 nM
- IC50 [3]: 130 nM
- IC50 [16]: 85300 nM
- IC50 [4]: 5440 nM
- IC50 [18]: 5400 nM
- IC50 [19]: 30 nM
Structure (SMILES): CCCCCCOc1cccc(OCCCCNC(=O)N[C@H](CC(=O)[O-])C[N+](C)(C)C)c1
- Activity (Mus musculus [13]): 25%
- Activity (Mus musculus [15]): 7%
- ED50 (Rattus norvegicus [17]): 3.7 mg/kg
- Activity (Mus musculus [20]): 41%

- IC50 [21]: 50 nM
Structure (SMILES): CCCCCCCCCCCCCCCC(=O)NC(CC(=O)[O-])C[N+](C)(C)C (racemic)
- inhibition in vivo at 100 µmol/kg (Mus musculus [22]): 46%
- Activity (Mus musculus [23]): 45%

- Ki [2]: 360 nM
- IC50 [11]: 1050 nM
- CMC [12]: 0.029 mM
- half-life [26]: 25 h
- IC50 [14]: 4000 nM
- IC50 [3]: 1100 nM
- IC50 [16]: 5400 nM
- IC50 [4]: 43400 nM
- IC50 [31]: 380 nM
- IC50 [18]: 160 nM
- IC50 [19]: 980 nM
Structure (SMILES): CCCCCCCCCCCCCCNC(=O)N[C@H](CC(=O)[O-])C[N+](C)(C)C
- Activity (Mus musculus [24]): 25%
- Activity (Mus musculus [25]): 20%
- ED50 (Cynomolgus monkey): 0.5 mg/kg
- Activity (Homo sapiens [27]): 12%
- Activity (Homo sapiens [28]): 25%
- Activity (Rattus norvegicus [29]): 45%
- Activity (Mus musculus [30]): 38%
- Activity (Mus musculus [32]): 30%
- Activity (Mus musculus [33]): 25%
- Activity (Mus musculus [34]): 26%
- Activity (Mus musculus [35]): 39%
- Activity (Mus musculus [36]): 30%
